Laboratory results from ChEMBL document CHEMBL1909046, “DrugMatrix in vitro pharmacology data”.

Legend:
[1] = biological target: Protein phosphatase 3 catalytic subunit alpha (Homo sapiens, UniProt Q08209); parameters: species or system Escherichia coli;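 further: inhibition of calcineurin (PP2B) enzyme activity, measured with DiFMUP as the substrate; in other assays of this panel Not Active means under 50% inhibition at 10 µM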
[2] = biological target: Protein kinase C alpha type (Homo sapiens, UniProt P17252); assay type: cell-based; conditions: sf9;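 further: inhibition of PKCalpha kinase activity measured in an enzyme assay with histone as the phosphorylation substrate; in other assays of this panel Not Active means under 50% inhibition at 10 µM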
[3] = DRUGMATRIX: Glutamate, AMPA radioligand binding (ligand: [3H] AMPA); assay type: cell membranes, Rattus norvegicus, Wistar, Cerebral cortex, Membrane; conditions: Not Active = under 50% inhibition at 10 µM
[4] = biological target: T1, Alpha-2A adrenergic receptor (Homo sapiens, UniProt P08913); assay type: cell membranes, Sf9, Membrane; further: in other assays of this panel Not Active means under 50% inhibition at 10 µM
T1 sequence (P08913 whole entry): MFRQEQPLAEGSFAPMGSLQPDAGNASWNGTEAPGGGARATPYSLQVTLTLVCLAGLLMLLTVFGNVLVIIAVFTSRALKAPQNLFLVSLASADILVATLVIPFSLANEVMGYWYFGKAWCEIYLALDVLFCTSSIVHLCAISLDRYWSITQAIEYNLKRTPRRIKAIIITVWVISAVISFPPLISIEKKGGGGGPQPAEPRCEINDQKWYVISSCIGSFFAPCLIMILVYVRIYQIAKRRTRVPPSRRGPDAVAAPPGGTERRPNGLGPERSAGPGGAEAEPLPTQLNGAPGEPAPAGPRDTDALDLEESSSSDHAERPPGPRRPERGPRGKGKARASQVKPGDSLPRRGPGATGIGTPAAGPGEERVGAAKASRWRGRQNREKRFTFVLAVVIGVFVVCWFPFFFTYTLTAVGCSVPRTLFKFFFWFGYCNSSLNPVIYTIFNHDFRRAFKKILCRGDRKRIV

[5] = biological target: T2, Nitric oxide synthase, inducible (Mus musculus, UniProt P29477); parameters: species or system Escherichia coli;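 further: inhibition of iNOS enzyme activity measured with L-arginine as substrate; in other assays of this panel Not Active means under 50% inhibition at 10 µM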
T2 sequence (P29477 whole entry): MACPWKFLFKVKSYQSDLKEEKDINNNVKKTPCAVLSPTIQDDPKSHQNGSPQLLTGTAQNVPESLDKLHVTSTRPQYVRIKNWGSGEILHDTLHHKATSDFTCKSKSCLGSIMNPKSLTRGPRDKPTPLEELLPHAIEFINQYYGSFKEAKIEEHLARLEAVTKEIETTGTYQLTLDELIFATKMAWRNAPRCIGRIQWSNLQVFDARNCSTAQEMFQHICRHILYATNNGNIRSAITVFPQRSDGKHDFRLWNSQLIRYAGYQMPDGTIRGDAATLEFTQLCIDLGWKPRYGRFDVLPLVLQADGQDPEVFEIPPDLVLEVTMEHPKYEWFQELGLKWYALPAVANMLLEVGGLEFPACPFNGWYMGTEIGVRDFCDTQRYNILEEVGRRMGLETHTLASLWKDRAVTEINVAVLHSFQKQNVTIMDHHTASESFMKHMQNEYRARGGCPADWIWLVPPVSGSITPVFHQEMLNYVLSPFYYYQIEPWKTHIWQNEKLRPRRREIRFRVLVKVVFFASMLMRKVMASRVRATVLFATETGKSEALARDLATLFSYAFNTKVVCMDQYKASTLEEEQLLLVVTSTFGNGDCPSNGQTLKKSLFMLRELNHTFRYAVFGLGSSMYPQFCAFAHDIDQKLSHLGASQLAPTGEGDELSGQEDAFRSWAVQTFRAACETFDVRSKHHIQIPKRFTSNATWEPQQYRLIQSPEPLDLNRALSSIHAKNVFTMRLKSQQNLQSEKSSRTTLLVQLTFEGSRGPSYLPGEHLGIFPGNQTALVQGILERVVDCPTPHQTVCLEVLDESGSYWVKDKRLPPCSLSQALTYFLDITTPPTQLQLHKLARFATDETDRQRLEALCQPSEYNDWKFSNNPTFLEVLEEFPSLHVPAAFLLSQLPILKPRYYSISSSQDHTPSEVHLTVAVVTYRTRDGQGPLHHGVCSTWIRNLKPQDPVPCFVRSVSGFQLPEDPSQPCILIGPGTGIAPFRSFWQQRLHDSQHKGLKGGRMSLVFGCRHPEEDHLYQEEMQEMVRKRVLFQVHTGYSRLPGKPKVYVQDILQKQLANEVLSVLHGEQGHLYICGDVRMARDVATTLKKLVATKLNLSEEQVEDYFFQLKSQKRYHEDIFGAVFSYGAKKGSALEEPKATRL

[6] = biological target: Mitogen-activated protein kinase 14 (Homo sapiens, UniProt Q16539); parameters: species or system Escherichia coli
Sequence of Mitogen-activated protein kinase 14 (Q16539 whole entry): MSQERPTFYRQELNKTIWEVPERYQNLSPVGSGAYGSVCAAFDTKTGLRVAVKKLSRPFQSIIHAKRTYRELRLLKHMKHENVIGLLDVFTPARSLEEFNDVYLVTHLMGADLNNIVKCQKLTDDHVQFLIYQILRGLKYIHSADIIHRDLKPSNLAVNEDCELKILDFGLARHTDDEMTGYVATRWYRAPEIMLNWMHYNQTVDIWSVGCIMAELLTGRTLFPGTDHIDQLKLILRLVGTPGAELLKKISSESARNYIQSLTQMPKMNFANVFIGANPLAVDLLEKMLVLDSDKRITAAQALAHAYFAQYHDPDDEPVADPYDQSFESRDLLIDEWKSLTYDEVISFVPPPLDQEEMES

Estrogen receptor beta = Estrogen receptor beta (Homo sapiens, UniProt Q92731); conditions: sf9; further: in other assays of this panel Not Active means under 50% inhibition at 10 µM
Sequence of Estrogen receptor beta (Q92731 whole entry): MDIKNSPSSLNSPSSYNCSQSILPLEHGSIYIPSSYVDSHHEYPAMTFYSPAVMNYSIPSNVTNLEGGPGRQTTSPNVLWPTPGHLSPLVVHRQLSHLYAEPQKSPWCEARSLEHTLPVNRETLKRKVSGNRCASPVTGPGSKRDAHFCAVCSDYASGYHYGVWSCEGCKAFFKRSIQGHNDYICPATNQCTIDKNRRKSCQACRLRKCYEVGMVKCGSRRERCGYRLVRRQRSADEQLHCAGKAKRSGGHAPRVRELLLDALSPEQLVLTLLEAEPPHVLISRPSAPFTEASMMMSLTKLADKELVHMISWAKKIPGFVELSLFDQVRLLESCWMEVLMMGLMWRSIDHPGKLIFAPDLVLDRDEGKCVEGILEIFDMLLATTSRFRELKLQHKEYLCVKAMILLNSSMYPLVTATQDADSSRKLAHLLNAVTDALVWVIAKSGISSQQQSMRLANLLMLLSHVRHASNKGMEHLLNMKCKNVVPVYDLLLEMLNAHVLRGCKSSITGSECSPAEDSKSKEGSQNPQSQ

Row | Compound | IC50 [1] | Ki [1] | IC50 [2] | Ki [2] | IC50 [3] | Ki [3] | IC50 ([4]; sf9) | Ki ([4]; sf9) | IC50 [5] | Ki [5] | IC50 [6] | Ki [6] | IC50 (Estrogen receptor beta) | Ki (Estrogen receptor beta) | IC50 ([4]; read-out: IC50) [nM] | Ki ([4]; read-out: Ki) [nM] | IC50 ([6]; read-out: IC50) [nM]
1 | STANNOUS FLUORIDE | Not Active | Not Active | Not Active | Not Active | Not Active | Not Active | Not Active | Not Active | Not Active | Not Active | Not Active | Not Active | Not Active | Not Active | – | – | –
2 | C[C@@H](O)[C@H]1C(=O)N2C(C(=O)O)=C(S[C@@H]3CN[C@H](C(=O)N(C)C)C3)[C@H](C)[C@H]12 [MEROPENEM] | Not Active | – | Not Active | – | Not Active | Not Active | Not Active | – | Not Active | – | Not Active | – | Not Active | – | – | – | –
3 | COc1ncnc(NS(=O)(=O)c2ccc(N)cc2)c1OC [SULFADOXINE] | Not Active | – | Not Active | – | Not Active | Not Active | Not Active | – | Not Active | – | Not Active | – | Not Active | – | – | – | –
4 | CCCc1nn(C)c2c(=O)[nH]c(-c3cc(S(=O)(=O)N4CCN(C)CC4)ccc3OCC)nc12 | Not Active | – | Not Active | – | Not Active | Not Active | Not Active | – | Not Active | – | Not Active | – | – | – | – | – | –
5 | COc1ccc(/C=C/C(=O)Nc2ccccc2C(=O)O)cc1OC | Not Active | – | Not Active | – | Not Active | Not Active | Not Active | – | Not Active | – | Not Active | – | Not Active | – | – | – | –
6 | CC1=C(CC(=O)O)c2cc(F)ccc2/C1=C\c1ccc(S(C)(=O)=O)cc1 [EXISULIND] | Not Active | – | Not Active | – | Not Active | Not Active | Not Active | – | Not Active | – | Not Active | – | Not Active | – | – | – | –
7 | CN1C2CCCC1CC(NC(=O)c1nn(C)c3ccccc13)C2 (stereo not drawn) [GRANISETRON] | Not Active | – | Not Active | – | – | – | Not Active | – | Not Active | – | Not Active | – | Not Active | – | – | – | –
8 | Cc1cn([C@H]2C[C@H](N=[N+]=[N-])[C@@H](CO)O2)c(=O)[nH]c1=O [ZIDOVUDINE] | Not Active | – | Not Active | – | Not Active | Not Active | Not Active | – | Not Active | – | Not Active | – | – | – | – | – | –
9 | OCCN1CCN(CCCN2c3ccccc3Sc3ccc(C(F)(F)F)cc32)CC1 [FLUPHENAZINE] | Not Active | – | Not Active | – | – | – | – | – | Not Active | – | Not Active | – | Not Active | – | 215 | 80 | –
10 | CC(C)(C)NC[C@H](O)COc1nsnc1N1CCOCC1 [TIMOLOL] | Not Active | – | Not Active | – | Not Active | Not Active | Not Active | – | Not Active | – | Not Active | – | – | – | – | – | –
11 | Nc1nc2c(c(=O)[nH]1)N(C=O)C(CNc1ccc(C(=O)N[C@@H](CCC(=O)O)C(=O)O)cc1)CN2 (stereo partly drawn) [LEUCOVORIN] | Not Active | – | Not Active | – | Not Active | Not Active | Not Active | – | Not Active | – | Not Active | – | Not Active | – | – | – | –
12 | O=c1n(CCCN2CCN(c3cccc(Cl)c3)CC2)nc2ccccn12 [TRAZODONE] | Not Active | – | Not Active | – | – | – | – | – | Not Active | – | Not Active | – | – | – | – | – | –
13 | COc1cc(C(=O)NS(=O)(=O)c2ccccc2C)ccc1Cc1cn(C)c2ccc(NC(=O)OC3CCCC3)cc12 [ZAFIRLUKAST] | Not Active | – | Not Active | – | Not Active | Not Active | Not Active | – | Not Active | – | – | – | Not Active | – | – | – | 353
14 | CCOC(N)=O | Not Active | – | Not Active | – | Not Active | Not Active | Not Active | – | Not Active | – | Not Active | – | – | – | – | – | –
15 | CC(=O)O[C@H]1C[C@@H]2CC[C@@H]3[C@H](CC[C@@]4(C)[C@H]3C[C@H]([N+]3(C)CCCCC3)[C@@H]4OC(C)=O)[C@@]2(C)C[C@@H]1N1CCCCC1.[Br-] [VECURONIUM BROMIDE] | Not Active | – | Not Active | – | Not Active | Not Active | Not Active | – | Not Active | – | Not Active | – | – | – | – | – | –
16 | CCS(=O)(=O)CCn1c([N+](=O)[O-])cnc1C [TINIDAZOLE] | Not Active | – | Not Active | – | Not Active | Not Active | Not Active | – | Not Active | – | Not Active | – | – | – | – | – | –
17 | Nc1ccc(S(=O)(=O)Nc2nccs2)cc1 [SULFATHIAZOLE] | Not Active | – | Not Active | – | Not Active | Not Active | Not Active | – | Not Active | – | Not Active | – | – | – | – | – | –
18 | O=C(O)C(Cl)(Cl)Cl [TRICHLOROACETIC ACID] | Not Active | – | Not Active | – | Not Active | Not Active | Not Active | – | Not Active | – | Not Active | – | – | – | – | – | –
19 | C=C(C)[C@H]1Cc2c(ccc3c2O[C@@H]2COc4cc(OC)c(OC)cc4[C@@H]2C3=O)O1 [ROTENONE] | Not Active | – | Not Active | – | Not Active | Not Active | Not Active | – | Not Active | – | Not Active | – | – | – | – | – | –
20 | CC(C)OC(=O)C(C)(C)Oc1ccc(C(=O)c2ccc(Cl)cc2)cc1 [FENOFIBRATE] | Not Active | – | Not Active | – | – | – | Not Active | – | Not Active | – | Not Active | – | Not Active | – | – | – | –
21 | CCN(CC)CC#CCOC(=O)C(O)(c1ccccc1)C1CCCCC1 (stereo not drawn) [OXYBUTYNIN] | Not Active | – | Not Active | – | – | – | Not Active | – | Not Active | – | Not Active | – | Not Active | – | – | – | –
22 | CC(=O)Nc1nnc(S(N)(=O)=O)s1 [ACETAZOLAMIDE] | Not Active | – | Not Active | – | – | – | Not Active | – | Not Active | – | Not Active | – | Not Active | – | – | – | –
23 | COc1cc(N)nc2[nH]c(-c3ccc(F)cc3)c(-c3ccncc3)c12 | Not Active | – | Not Active | – | Not Active | Not Active | Not Active | – | Not Active | – | – | – | Not Active | – | – | – | –
24 | CC[C@@H](CO)NC(=O)[C@@H]1C=C2c3cccc4c3c(cn4C)C[C@H]2N(C)C1 [METHYSERGIDE] | Not Active | – | Not Active | – | – | – | – | – | Not Active | – | Not Active | – | Not Active | – | 1630 | 611 | –
25 | CN[C@@H]1[C@H](O)[C@H](NC)[C@H]2O[C@@]3(O)C(=O)C[C@@H](C)O[C@H]3O[C@@H]2[C@H]1O [SPECTINOMYCIN] | Not Active | – | Not Active | – | Not Active | Not Active | Not Active | – | Not Active | – | Not Active | – | – | – | – | – | –
26 | O=c1[nH]c2ccccc2n1CCCN1CCC(n2c(=O)[nH]c3cc(Cl)ccc32)CC1 [DOMPERIDONE] | Not Active | – | Not Active | – | – | – | – | – | Not Active | – | Not Active | – | Not Active | – | – | – | –
27 | O=P(O)(O)C(O)(Cc1cccnc1)P(=O)(O)O [RISEDRONIC ACID] | Not Active | – | Not Active | – | Not Active | Not Active | Not Active | – | Not Active | – | Not Active | – | – | – | – | – | –
